Key:
Assay in all cases: Competitive isoTOP-ABPP in situ (fragment-treated cells)
Assay type in all cases: cell-based
[1] = biological target: T1, cysteines in MDA-MB-231 and Ramos cells (Homo sapiens, UniProt O14879)
T1 sequence (O14879 1-490): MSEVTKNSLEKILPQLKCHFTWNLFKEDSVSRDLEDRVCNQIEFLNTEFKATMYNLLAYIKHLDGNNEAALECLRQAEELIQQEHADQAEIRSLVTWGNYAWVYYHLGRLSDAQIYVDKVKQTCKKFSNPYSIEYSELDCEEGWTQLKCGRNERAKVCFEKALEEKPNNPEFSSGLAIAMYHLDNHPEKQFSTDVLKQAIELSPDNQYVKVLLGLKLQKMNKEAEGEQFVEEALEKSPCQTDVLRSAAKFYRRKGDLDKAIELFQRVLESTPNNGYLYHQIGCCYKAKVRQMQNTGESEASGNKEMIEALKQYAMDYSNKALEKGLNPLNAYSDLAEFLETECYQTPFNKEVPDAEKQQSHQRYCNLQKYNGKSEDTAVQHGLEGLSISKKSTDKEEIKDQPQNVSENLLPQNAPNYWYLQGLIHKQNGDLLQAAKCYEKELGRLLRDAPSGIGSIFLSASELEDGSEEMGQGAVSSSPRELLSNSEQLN

[2] = biological target: cysteines in MDA-MB-231 and Ramos cells (Homo sapiens, UniProt P12268)
[3] = biological target: T2, cysteines in MDA-MB-231 and Ramos cells (Homo sapiens, UniProt P24752)
T2 sequence (P24752 34-427): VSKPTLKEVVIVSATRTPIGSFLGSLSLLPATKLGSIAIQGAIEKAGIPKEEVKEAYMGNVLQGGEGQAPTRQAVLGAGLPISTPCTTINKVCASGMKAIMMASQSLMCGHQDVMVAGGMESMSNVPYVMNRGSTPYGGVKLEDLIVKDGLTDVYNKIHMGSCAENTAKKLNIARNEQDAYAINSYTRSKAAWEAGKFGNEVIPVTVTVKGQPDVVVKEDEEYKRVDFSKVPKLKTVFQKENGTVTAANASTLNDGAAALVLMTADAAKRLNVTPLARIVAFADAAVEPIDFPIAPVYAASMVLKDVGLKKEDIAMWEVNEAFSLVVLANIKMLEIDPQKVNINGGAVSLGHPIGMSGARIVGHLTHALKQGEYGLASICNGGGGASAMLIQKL

[4] = biological target: T3, cysteines in MDA-MB-231 and Ramos cells (Homo sapiens, UniProt Q13155)
T3 sequence (Q13155 1-320): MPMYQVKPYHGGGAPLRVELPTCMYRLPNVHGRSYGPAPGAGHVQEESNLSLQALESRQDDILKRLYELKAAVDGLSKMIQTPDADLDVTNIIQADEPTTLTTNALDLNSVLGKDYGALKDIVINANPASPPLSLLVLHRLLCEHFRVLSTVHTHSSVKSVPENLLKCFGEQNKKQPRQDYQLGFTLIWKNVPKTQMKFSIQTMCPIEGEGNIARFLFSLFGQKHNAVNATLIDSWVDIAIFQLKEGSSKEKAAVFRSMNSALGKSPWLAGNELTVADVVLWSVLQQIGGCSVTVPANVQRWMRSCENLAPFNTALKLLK

[5] = biological target: cysteines in MDA-MB-231 and Ramos cells (Homo sapiens, UniProt Q15021)
[6] = biological target: T4, cysteines in MDA-MB-231 and Ramos cells (Homo sapiens, UniProt Q96CM8)
T4 sequence (Q96CM8 42-615): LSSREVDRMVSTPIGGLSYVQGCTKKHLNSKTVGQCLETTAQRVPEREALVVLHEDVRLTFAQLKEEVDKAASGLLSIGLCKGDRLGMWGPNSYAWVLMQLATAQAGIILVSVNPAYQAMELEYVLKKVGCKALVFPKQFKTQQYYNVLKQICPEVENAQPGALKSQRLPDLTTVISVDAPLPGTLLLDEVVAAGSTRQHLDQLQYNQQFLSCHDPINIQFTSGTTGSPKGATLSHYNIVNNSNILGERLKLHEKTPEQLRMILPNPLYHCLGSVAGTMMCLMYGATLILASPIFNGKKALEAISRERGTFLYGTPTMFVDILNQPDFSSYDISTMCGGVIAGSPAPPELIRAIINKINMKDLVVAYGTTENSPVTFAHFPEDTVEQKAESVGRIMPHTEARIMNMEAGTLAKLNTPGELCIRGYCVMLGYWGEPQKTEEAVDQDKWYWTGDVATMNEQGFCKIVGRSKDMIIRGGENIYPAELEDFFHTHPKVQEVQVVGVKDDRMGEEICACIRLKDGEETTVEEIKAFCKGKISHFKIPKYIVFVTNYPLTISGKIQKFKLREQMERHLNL

[7] = biological target: T5, cysteines in MDA-MB-231 and Ramos cells (Homo sapiens, UniProt Q9NS86)
T5 sequence (Q9NS86 1-450): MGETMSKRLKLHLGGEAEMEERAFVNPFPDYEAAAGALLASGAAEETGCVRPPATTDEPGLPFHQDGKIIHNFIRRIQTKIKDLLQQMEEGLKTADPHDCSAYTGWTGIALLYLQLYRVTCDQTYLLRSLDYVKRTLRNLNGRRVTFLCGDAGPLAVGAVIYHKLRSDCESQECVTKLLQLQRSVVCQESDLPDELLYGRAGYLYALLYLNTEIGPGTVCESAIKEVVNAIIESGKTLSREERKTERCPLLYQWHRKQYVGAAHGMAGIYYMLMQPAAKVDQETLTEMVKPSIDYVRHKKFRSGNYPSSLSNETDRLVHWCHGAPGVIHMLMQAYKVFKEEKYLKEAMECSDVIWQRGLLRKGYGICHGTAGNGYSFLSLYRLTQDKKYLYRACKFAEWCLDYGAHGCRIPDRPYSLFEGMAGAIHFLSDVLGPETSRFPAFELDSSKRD

[8] = biological target: cysteines in MDA-MB-231 and Ramos cells (Homo sapiens, UniProt Q9ULV4)
Sequence of cysteines in MDA-MB-231 and Ramos cells (Homo sapiens, UniProt Q9ULV4) (Q9ULV4 whole entry): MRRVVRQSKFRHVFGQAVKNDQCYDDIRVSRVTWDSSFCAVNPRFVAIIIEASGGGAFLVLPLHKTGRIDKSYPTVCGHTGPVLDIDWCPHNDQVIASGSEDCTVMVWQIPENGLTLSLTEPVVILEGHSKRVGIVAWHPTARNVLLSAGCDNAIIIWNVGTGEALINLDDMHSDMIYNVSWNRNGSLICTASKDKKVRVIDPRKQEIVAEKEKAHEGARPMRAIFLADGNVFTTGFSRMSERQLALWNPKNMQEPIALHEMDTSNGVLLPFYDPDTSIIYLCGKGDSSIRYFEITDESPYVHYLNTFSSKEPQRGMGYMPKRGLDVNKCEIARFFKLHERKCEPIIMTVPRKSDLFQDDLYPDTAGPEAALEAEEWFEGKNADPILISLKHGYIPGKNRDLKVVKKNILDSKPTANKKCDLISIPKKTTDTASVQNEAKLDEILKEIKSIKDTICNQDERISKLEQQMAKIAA

Sequence of cysteines in MDA-MB-231 and Ramos cells (Homo sapiens, UniProt Q15021) (Q15021 whole entry): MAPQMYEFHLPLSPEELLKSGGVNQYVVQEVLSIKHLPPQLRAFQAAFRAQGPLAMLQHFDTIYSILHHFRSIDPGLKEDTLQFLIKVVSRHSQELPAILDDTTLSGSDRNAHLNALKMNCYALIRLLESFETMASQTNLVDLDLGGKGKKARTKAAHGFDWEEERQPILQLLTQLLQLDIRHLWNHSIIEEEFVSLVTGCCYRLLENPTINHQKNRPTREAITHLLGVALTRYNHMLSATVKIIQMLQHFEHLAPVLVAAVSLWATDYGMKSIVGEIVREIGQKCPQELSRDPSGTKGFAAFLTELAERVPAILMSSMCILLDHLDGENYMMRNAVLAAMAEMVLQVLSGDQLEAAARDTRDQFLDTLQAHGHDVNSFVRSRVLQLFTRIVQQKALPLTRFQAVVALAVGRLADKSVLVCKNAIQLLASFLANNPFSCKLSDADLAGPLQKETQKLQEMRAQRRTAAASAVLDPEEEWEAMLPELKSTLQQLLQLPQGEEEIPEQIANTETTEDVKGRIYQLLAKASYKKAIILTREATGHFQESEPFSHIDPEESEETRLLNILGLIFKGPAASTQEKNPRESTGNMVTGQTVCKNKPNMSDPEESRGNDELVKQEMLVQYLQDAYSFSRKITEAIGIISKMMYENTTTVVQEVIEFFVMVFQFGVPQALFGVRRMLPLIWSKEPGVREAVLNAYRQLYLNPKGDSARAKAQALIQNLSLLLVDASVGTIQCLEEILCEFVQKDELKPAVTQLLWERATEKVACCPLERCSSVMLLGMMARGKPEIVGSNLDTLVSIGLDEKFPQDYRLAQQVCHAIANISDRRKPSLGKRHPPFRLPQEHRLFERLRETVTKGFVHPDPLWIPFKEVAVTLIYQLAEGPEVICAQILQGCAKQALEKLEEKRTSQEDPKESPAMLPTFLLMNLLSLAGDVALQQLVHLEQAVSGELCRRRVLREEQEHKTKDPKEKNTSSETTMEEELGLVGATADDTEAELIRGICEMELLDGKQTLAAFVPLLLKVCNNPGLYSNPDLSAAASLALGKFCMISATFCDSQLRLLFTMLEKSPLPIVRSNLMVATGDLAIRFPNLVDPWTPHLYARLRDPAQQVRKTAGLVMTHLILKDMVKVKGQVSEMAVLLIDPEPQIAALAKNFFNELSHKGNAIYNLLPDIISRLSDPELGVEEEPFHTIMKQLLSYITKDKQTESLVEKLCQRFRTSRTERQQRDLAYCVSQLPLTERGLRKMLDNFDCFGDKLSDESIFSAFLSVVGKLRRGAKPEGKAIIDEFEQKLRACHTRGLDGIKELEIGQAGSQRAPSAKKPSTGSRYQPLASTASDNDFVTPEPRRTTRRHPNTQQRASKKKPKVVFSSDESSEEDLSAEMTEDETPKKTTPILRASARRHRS

## Cn1cc(S(=O)(=O)N2CCOCC2)cc1C(=O)NC(=O)CCl [compound 11]
[1]; 100 μM in situ 231
  isoTOP-ABPP ratio O14879_C343: 0.4
[2]; 100 μM in situ 231
  isoTOP-ABPP ratio P12268_C140: 0.6
  isoTOP-ABPP ratio P12268_C331: 1.0
[3]; 100 μM in situ 231
  isoTOP-ABPP ratio P24752_C119: 1.2
  isoTOP-ABPP ratio P24752_C413: 1.2
  isoTOP-ABPP ratio, P24752_C126: 1.2
  isoTOP-ABPP ratio, P24752_C196: 1.1
[4]; 100 μM in situ 231
  isoTOP-ABPP ratio Q13155_C23: 1.2
  isoTOP-ABPP ratio Q13155_C291: 0.9
[5]; 100 μM in situ 231
  isoTOP-ABPP ratio Q15021_C439: 0.9
[6]; 100 μM in situ 231
  isoTOP-ABPP ratio Q96CM8_C64: 1.5
[7]; 100 μM in situ 231
  isoTOP-ABPP ratio Q9NS86_C187: 0.8
[8]; 100 μM in situ 231
  isoTOP-ABPP ratio Q9ULV4_C420: 0.9

## O=C(CCl)NC(=O)NC12CC3CC(CC(C3)C1)C2 [compound 12]
[1]; 200 μM, insitu, 231
  isoTOP-ABPP ratio O14879_C343: 3.5
[2]; 200 μM, insitu, 231
  isoTOP-ABPP ratio P12268_C140: 1.2
[3]; 200 μM, insitu, 231
  isoTOP-ABPP ratio P24752_C119: 4.1
  isoTOP-ABPP ratio P24752_C413: 9.9
  isoTOP-ABPP ratio, P24752_C126: 5.8
  isoTOP-ABPP ratio, P24752_C196: 4.6
[4]; 200 μM, insitu, 231
  isoTOP-ABPP ratio Q13155_C23: 1.6
  isoTOP-ABPP ratio Q13155_C291: 1.1
[5]; 200 μM, insitu, 231
  isoTOP-ABPP ratio Q15021_C439: 6.7
[6]; 200 μM, insitu, 231
  isoTOP-ABPP ratio Q96CM8_C64: 17.9
[7]; 200 μM, insitu, 231
  isoTOP-ABPP ratio Q9NS86_C187: 2.0
[8]; 200 μM, insitu, 231
  isoTOP-ABPP ratio Q9ULV4_C420: 2.2

## O=C(CCl)NC12CC3CC(CC(C3)C1)C2 [compound 21]
[1]; 200 μM, insitu, 231
  isoTOP-ABPP ratio O14879_C343: 0.8
[2]; 200 μM, insitu, 231
  isoTOP-ABPP ratio P12268_C140: 0.6
  isoTOP-ABPP ratio P12268_C331: 0.8
[3]; 200 μM, insitu, 231
  isoTOP-ABPP ratio P24752_C119: 1.6
  isoTOP-ABPP ratio P24752_C413: 1.5
  isoTOP-ABPP ratio, P24752_C126: 1.4
  isoTOP-ABPP ratio, P24752_C196: 1.5
[4]; 200 μM, insitu, 231
  isoTOP-ABPP ratio Q13155_C23: 0.9
  isoTOP-ABPP ratio Q13155_C291: 0.8
[5]; 200 μM, insitu, 231
  isoTOP-ABPP ratio Q15021_C439: 0.7
[6]; 200 μM, insitu, 231
  isoTOP-ABPP ratio Q96CM8_C64: 2.0
[7]; 200 μM, insitu, 231
  isoTOP-ABPP ratio Q9NS86_C187: 0.9
[8]; 200 μM, insitu, 231
  isoTOP-ABPP ratio Q9ULV4_C420: 1.3

## CC(C)CCOCCNC(=O)CCl [compound 27]
[1]; 200 μM, insitu, 231
  isoTOP-ABPP ratio O14879_C343: 0.4
[2]; 200 μM, insitu, 231
  isoTOP-ABPP ratio P12268_C140: 0.5
  isoTOP-ABPP ratio P12268_C331: 0.7
[3]; 200 μM, insitu, 231
  isoTOP-ABPP ratio P24752_C119: 1.6
  isoTOP-ABPP ratio P24752_C413: 1.9
[4]; 200 μM, insitu, 231
  isoTOP-ABPP ratio Q13155_C23: 0.7
  isoTOP-ABPP ratio Q13155_C291: 0.7
[5]; 200 μM, insitu, 231
  isoTOP-ABPP ratio Q15021_C439: 0.6
[6]; 200 μM, insitu, 231
  isoTOP-ABPP ratio Q96CM8_C64: 1.8
[7]; 200 μM, insitu, 231
  isoTOP-ABPP ratio Q9NS86_C187: 0.4
[8]; 200 μM, insitu, 231
  isoTOP-ABPP ratio Q9ULV4_C420: 0.8

## C=CC(=O)N(Cc1cccnc1)c1cc(C(F)(F)F)cc(C(F)(F)F)c1 [compound 31]
[1]; 200 μM, insitu, 231
  isoTOP-ABPP ratio O14879_C343: 0.9
[2]; 200 μM, insitu, 231
  isoTOP-ABPP ratio P12268_C140: 0.6
  isoTOP-ABPP ratio P12268_C331: 1.0
[2]; 200 μM, insitu, ramos
  isoTOP-ABPP ratio P12268_C140: 1.0
  isoTOP-ABPP ratio P12268_C331: 1.1
[3]; 200 μM, insitu, 231
  isoTOP-ABPP ratio P24752_C119: 0.6
  isoTOP-ABPP ratio P24752_C413: 1.0
  isoTOP-ABPP ratio, P24752_C126: 0.7
[3]; 200 μM, insitu, ramos
  isoTOP-ABPP ratio P24752_C119: 0.7
[4]; 200 μM, insitu, 231
  isoTOP-ABPP ratio Q13155_C291: 0.8
[5]; 200 μM, insitu, 231
  isoTOP-ABPP ratio Q15021_C439: 20.0
[6]; 200 μM, insitu, 231
  isoTOP-ABPP ratio Q96CM8_C64: 0.8
[7]; 200 μM, insitu, 231
  isoTOP-ABPP ratio Q9NS86_C187: 0.5
[8]; 200 μM, insitu, 231
  isoTOP-ABPP ratio Q9ULV4_C420: 0.8
[8]; 200 μM, insitu, ramos
  isoTOP-ABPP ratio Q9ULV4_C420: 1.1

## Cc1ccc(C=C(C#N)C(=O)NCCN2CCOCC2)cc1 [compound 41]
[1]; 200 μM, insitu, 231
  isoTOP-ABPP ratio O14879_C343: 0.3
[2]; 200 μM, insitu, 231
  isoTOP-ABPP ratio P12268_C140: 0.7
  isoTOP-ABPP ratio P12268_C331: 0.8
[3]; 200 μM, insitu, 231
  isoTOP-ABPP ratio P24752_C119: 1.9
  isoTOP-ABPP ratio P24752_C413: 0.9
  isoTOP-ABPP ratio, P24752_C126: 0.8
  isoTOP-ABPP ratio, P24752_C196: 0.9
[4]; 200 μM, insitu, 231
  isoTOP-ABPP ratio Q13155_C291: 0.7
[5]; 200 μM, insitu, 231
  isoTOP-ABPP ratio Q15021_C439: 0.8
[6]; 200 μM, insitu, 231
  isoTOP-ABPP ratio Q96CM8_C64: 0.8
[7]; 200 μM, insitu, 231
  isoTOP-ABPP ratio Q9NS86_C187: 0.6
[8]; 200 μM, insitu, 231
  isoTOP-ABPP ratio Q9ULV4_C420: 0.8

Reference: US10670605B2, “Cysteine reactive probes and uses thereof” (The Scripps Research Institute, priority 2015, dated 2020)
